Reference: patent US20210147571A1, “MONOCLONAL ANTIBODY TARGETING HUMAN TUMOR STEM CELLS AND USE THEREOF” (Suzhou Bojuhua Biomedical Technology Co. Ltd, priority 2017, published 2021)

B1: L11: humanized light chain version L11 (SEQ ID NO:47), higher humanized version based on L6 (protein)
light: DIVMTQTPFSNPVTLGQPASISCRSSKSLLHSNGITYLYWFLQKPGQSPQLLIYQMSNLASGVPDRFSGSGSGTDFTLKISRVEAEDVGVYYCAQNLELYTFGQGTKVEIKRTVAAPSVFIFPPSDEQLKSGTASVVCLLNNFYPREAKVQWKVDNALQSGNSQESVTEQDSKDSTYSLSSTLTLSKADYEKHKVYACEVTHQGLSSPVTKSFNRGEC
modifications: Humanized light chain L11

Tests used:
[1] = tested on: Bel7402-V13 transplanted tumor; experiment: human liver cancer transplanted tumor treated with Hetumomab; format: in vivo, nude mice; conditions: cisplatin 0.3 mg/kg
Protocol: Bel7402-V13 sphere cells were inoculated subcutaneouly to nude mice at 30,000 cells/mouse. The nude mice were randomly divided into 6 groups (6 per group) as follows: the chemotherapy group (0.3 mg/kg cisplatin, 6 mice); the high dose antibody group (10 mg/kg, 6 mice); the high dose antibody+chemotherapy group (6 mice); the low dose antibody group (2.5 mg/kg, 6 mice); the low dose antibody+chemotherapy group (6 mice); and the PBS group (6 mice). The treatments were started the next day after the cells were inoculated, twice a week, and terminated after 5 weeks. The major and minor diameters of the subcutaneously transplanted tumor were measured twice a week. The tumor volume was calculated with the formula V=(π/6)×(major diameter×minor diameter×minor diameter), and the changes in tumor volume and growth rate of each group were observed. […] Tumor growth rate=(Vt−V0)/number of days, where Vt is the tumor volume at each measurement, and V0 is the tumor volume […] ([…]).

[2] = tested on: Bel7402-V13 transplanted tumor; experiment: human liver cancer transplanted tumor treated with Hetuzumab H5L11; format: in vivo, nude mice; conditions: cisplatin 0.3 mg/kg, day 36
Protocol: Specifically, the sphere cells of the human liver cancer cell line Bel7402-V13 were harvested and inoculated subcutaneouly into nude mice at 30000 cells/mouse. […] The antibody treatments were started on the second day after inoculation of cancer cells. The experimental group and the control group were treated by intraperitoneal injection. The antibody treatments were performed for 36 days. The chemotherapeutic drug group was treated for 4 weeks, twice a week. The major and minor diameters of the subcutaneously transplanted tumor were measured twice a week. The tumor volume was calculated with the formula V=(π/6)×(major diameter×minor diameter×minor diameter). The change in tumor volume in each group was observed.

[3] = tested on: Bel7402-V13 sphere cells; experiment: inhibition of cisplatin resistance (CCK-8 IC50 after antibody treatment); format: cell-based, human; conditions: PBS-treated Bel7402-V13 sphere cells
Protocol: (§1) Drug resistance is one of the biological features of tumor stem cells. […] Each group of cells was cultured with a medium containing 9 different concentrations, i.e., 0, 0.0625, 0.125, 0.25, 0.5, 1, 2, 4, and 8 μg/mL, of cisplatin. The complete medium containing cisplatin was replaced once every 48 hours. After 5 days, CCK-8 reagent was added according to the instructions of CCK-8 kit. OD450 absorbance values were measured, and the IC50 values for each group were calculated.

[4] = tested on: SPCA-1 cells; experiment: as above; format: cell-based, human; conditions: SPCA-1 control group
Protocol: as §1

[5] = tested on: SNU-5 transplanted tumor; experiment: human gastric cancer transplanted tumor treated with Hetumomab; format: in vivo, nude mice; conditions: cisplatin 0.3 mg/kg, one month
Protocol: Specifically, the sphere cells of the human gastric cancer cell line SNU-5-V13 were harvested and inoculated in nude mice at 2.5×10^5 cells/mouse. The mice were divided into following 7 groups, with 8 mice in each group: the PBS control group; the mouse IgG control group; the chemotherapy group (cisplatin 0.3 mg/kg); the high dose antibody Hetumomab group (20 mg/kg); the low dose Hetumomab group (1.25 mg/kg); the high dose Hetumomab+chemotherapeutic drug group; and the low dose Hetumomab+chemotherapeutic drug group. The antibody treatment was started on the second day after inoculation of gastric cancer cells.
The experimental groups and the control group were treated by intraperitoneal injection. The treatments were performed for one month. The chemotherapeutic drug group was treated for 4 weeks, twice a week. The major and minor diameters of the subcutaneously transplanted tumor were measured twice a week. The tumor volume was calculated with the formula V=(π/6)×(major diameter×minor diameter×minor diameter). The change in tumor volume in each group was observed.

[6] = tested on: SPCA-1 transplanted tumor; experiment: human lung cancer transplanted tumor treated with Hetumomab; format: in vivo, nude mice; conditions: cisplatin 0.3 mg/kg, day 28
Protocol: Specifically, the sphere cells of the human lung cancer cell line SPCA-1 were harvested and inoculated in nude mice at 2.5×10^5 cells/mouse. The mice were divided into following 5 groups, with 5 mice in each group: the PBS control group; the chemotherapy group (cisplatin 0.3 mg/kg); the high dose antibody Hetumomab group (40 mg/kg); the medium dose antibody Hetumomab group (10 mg/kg); and the low dose Hetumomab group (2.5 mg/kg). The antibody treatment was started on the second day after inoculation of lung cancer cells. The experimental groups and the control group were treated by intraperitoneal injection. The treatments were performed for 28 days after inoculation. The chemotherapeutic drug group was treated twice a week. The major and minor diameters of the subcutaneously transplanted tumors were measured twice a week. The tumor volume was calculated with the formula V=(π/6)×(major diameter×minor diameter×minor diameter). The change in tumor volume in each group was observed.

[7] = tested on: SPCA-1 cells; experiment: CCK8 drug resistance (cisplatin IC50) of flow-sorted cells; format: cell-based, human
Protocol: In order to detect the drug resistance of Hetumomab^+ lung cancer cells, Hetumomab^+ cells, parental cells and Hetumomab^− cells obtained by flow sorting sphere cells of human lung cancer cells SPCA-1 were seeded at 5000 cells/well in a 96-well plate. […] Therefore, Hetumomab^+ lung cancer cells have stronger chemotherapeutic drug resistance than the parental cells and Hetumomab^− cells.

[8] = tested on: Bel7402-V13 cells; experiment: as above; format: cell-based, human
Protocol: In order to detect the drug resistance of Hetumomab^+ liver cancer cells, Hetumomab^+ cells, parental cells and Hetumomab^− cells obtained by flow sorting sphere cells of human liver cancer cells Bel7402-V13 were seeded at 5000 cells/well in a 96-well plate. Each group of cells was cultured in a complete medium containing 8 different concentrations, i.e., 0 μg/mL, 0.0625 μg/mL, 0.125 μg/mL, 0.25 μg/mL, 0.5 μg/mL, 1 μg/mL, 2 μg/mL, and 4 μg/mL, of cisplatin. The medium was changed once every 3 days, and after 7 days, the OD value was measured by the CCK8 method to determine the IC50 reflecting drug resistance. […] Therefore, Hetumomab^+ liver cancer cells have stronger chemotherapeutic drug resistance than the parental cells and Hetumomab^− cells.

[9] = tested on: Hetumomab target antigen on cells; experiment: cell ELISA affinity of humanized chain versions; format: binding, human; conditions: light chain mutant combined with heavy chain of Hetuximab
Description: Based on the H1 heavy chain sequence, two other heavy chain mutants were designed as initial humanization: H2 and H3. The degree of humanization of these versions was in descending order. […] Since H1 was the most humanized version in which the framework regions were all humanized, H1 was finally determined as the preferred humanization molecular template.
Based on the L1 with fully humanized FR region, L2 and L3 were designed, and the degree of humanization of the three version was also in descending order. […] In order to find out which key amino acids were mutated during humanization, back mutations were performed, and nine different mutants (L4-L12) were prepared.
Therefore, L6, L11, and L12 were finally selected for optimization screening of the best light chain humanized version.
However, glycosylated isomers of Hetuzumab H1 heavy chain were confirmed by antibody sequence analysis and reductive electrophoresis analysis. In the analysis of H1 heavy chain expression products by electrophoresis, H1L6, H1L11, and H1L12 were all shown with weak sub-bands visible below the main band of the heavy chain. […] This may cause serious quality problems of uniformity, which is very unfavorable for drug development. […] H4 and H5 were combined with L11, respectively, and analyzed by electrophoresis after expression. […]

Molecule | tumor volume inhibition rate ([1]; at drug withdrawal after 5 weeks) | tumor growth rate ([1]; month after drug withdrawal) | tumor volume inhibition rate ([1]; one month after drug withdrawal) | Tumor Volume Inhibition Rate (%) [2] | IC50 of cisplatin, control group [3] | IC50 of cisplatin, control group [4] | Tumor Volume Inhibition Rate (%) [5] | Tumor Volume Inhibition Rate (%) [6] | IC50 of cisplatin ([7]; SPCA-1 Hetumomab+ cells) | IC50 of cisplatin ([7]; SPCA-1 Hetumomab− cells) | IC50 of cisplatin ([7]; SPCA-1 Parental Cells) | IC50 of cisplatin ([8]; Bel7402-V13 Hetumomab+ cells, 7 days) | IC50 of cisplatin ([8]; Bel7402-V13 Hetumomab− cells) | IC50 of cisplatin ([8]; Bel7402-V13 Parental Cells) | affinity by cellular ELISA [9]
N.N.[Cl][Pt][Cl] [cisplatin] | 83.5% | 0.154 cm^3/day | 48.6% | 14.52% | 0.9 µg/mL | 0.351 µg/mL | 33.16% | 24.91% | 0.707 µg/mL | 0.180 µg/mL | 0.513 µg/mL | 0.739 µg/mL | 0.313 µg/mL | 0.502 µg/mL | 
B1 |  |  |  |  |  |  |  |  |  |  |  |  |  |  | close to that of L6
